Measurements from paper PMC7898037, “Improving mitochondria and ER stability helps eliminate upper motor neuron degeneration that occurs due to mSOD1 toxicity and TDP‐43 pathology” (Clinical and Translational Medicine, 2021).

Experiments:
Format in all cases: in vivo
[1] = test system: UMNs in the motor cortex of prpTDP‐43^A315T‐UeGFP mice; assay: UMN quantification in motor cortex, prpTDP‐43^A315T‐UeGFP mice
Protocol: (§1) hSOD1^G93A‐UeGFP, prpTDP‐43^A315T‐UeGFP and WT‐UeGFP mice were weighed and the required NU‐9 dose per weight was calculated (20 or 100 mg/kg), which was administered once daily by oral gavage, starting at postnatal day (P)60 and continuing until P120. Animals from the untreated group received the vehicle (NMP and olive oil) only. For oral administration purposes, 20 ga × 38 mm plastic feeding tubes were used (Instech Laboratories, Inc). The gavage tip was inserted into the mouth directly over the tongue and into the pharynx. While observing the swallowing reflex, the tip was safely and smoothly slid into the esophagus. Once the administration was completed, the gavage tip was pulled straight out.
(§2) Since UMNs are genetically labeled with eGFP expression in the motor cortex of WT‐UeGFP, hSOD1^G93A‐UeGFP, and prpTDP‐43^A315T‐UeGFP mice, UMNs were identified based on the GFP expression. Quantitative analyses were performed on three matched rostrocaudal sections spanning the motor cortex. Three images per subject were taken to capture a 4× objective filed that encompass layer 5 of the motor cortex. An inverted epifluorescent Eclipse TE2000‐E microscope (Nikon) with the same exposure time and intensity was used. UMNs were counted only if their soma and apical dendrite were both visualized in the same 50‐µm thick section. Images were analyzed in ImageJ (NIH) using the Find maxima processing command to determine the local maxima within a predetermined region of interest that circumscribes the layer 5 of the motor cortex. A universal noise tolerance, which ignores the local maxima corresponding to background and autofluorescence, was applied to all images.

[2] = test system: WT‐UeGFP mice; assay: Rotarod test, WT‐UeGFP mice; parameters: Rotarod, Mean Diff. (vehicle minus NU-9) / Rotarod, mean difference G vehicle vs. G NU-9 (20) / Rotarod, mean difference G vehicle vs. G NU-9 (100): unit not given here; conditions: for Rotarod, group mean (Mean 1 / Mean 2 of 2way ANOVA multiple comparisons): WT-UeGFP (G); for Rotarod, group mean (Mean 1 / Mean 2) / Rotarod, Mean Diff. (vehicle minus NU-9): WT-UeGFP mice; for Rotarod, Average / Rotarod, mean difference G vehicle vs. G NU-9 (20) / Rotarod, mean difference G vehicle vs. G NU-9 (100): WT-UeGFP; for Rotarod, mean difference G vehicle vs. G NU-9 (20): vehicle minus NU-9 20 mg/kg/day; for Rotarod, mean difference G vehicle vs. G NU-9 (100): vehicle minus NU-9 100 mg/kg/day
Protocol: as §1
Behavior data were collected from hSOD1^G93A‐UeGFP and WT‐UeGFP mice (starting at P60 and every 7 days until P116) and from prpTDP‐43^A315T‐UeGFP mice (at P60, P90, and P120) with the following number of mice for each group: WT‐UeGFP vehicle (n = 10), hSOD1^G93A‐UeGFP vehicle (n = 6), WT‐UeGFP 20 mg/kg/day NU‐9 (n = 5), hSOD1^G93A‐UeGFP 20 mg/kg/day NU‐9 (n = 7), WT‐UeGFP 100 mg/kg/day NU‐9 (n = 11), hSOD1^G93A‐UeGFP 100 mg/kg/day NU‐9 (n = 9), prpTDP‐43^A315T‐UeGFP untreated (n ≥ 3), and prpTDP‐43^A315T‐UeGFP 100 mg/kg/day NU‐9 (n = 4) (Table S3).
Mice were placed on a rotating rod that accelerates linearly from 4 to 40 rpm (Rotarod, Ugo Basile), and the average time spent on the rotating rod for three consecutive trials was calculated for each mouse. Mice were allowed to run for a maximum of 5 min with a 5 min rest period between each run, and the latency to fall was recorded for three consecutive trials. The average of the three trials was taken as the data point for each mouse at the age tested, and the performance of different groups are reported as the mean ± SEM.

[3] = test system: UMNs in the motor cortex of hSOD1^G93A‐UeGFP mice; assay: UMN quantification in motor cortex, hSOD1^G93A‐UeGFP mice; conditions: for Mean, Fig. 5E (UMN quantification in motor cortex): hSOD1G93A-UeGFP mice; for average number of UMNs per section in the motor cortex: hSOD1^G93A‐UeGFP mice
Protocol: as §1, §2

C[C@H](Oc1cc(C(F)(F)F)cc(C(F)(F)F)c1)C1CC(=O)CC(=O)C1 [NU‐9]
Mean Diff., Fig. 7H, GT Untreated vs. GT NU-9 (100) ([1]; prpTDP43A315T-UeGFP untreated minus NU-9 100 mg/kg/day, Tukey's multiple comparisons test): -22.58 | Mean, Fig. 7H (UMN quantification in motor cortex) ([1]; prpTDP-43A315T-UeGFP mice, NU-9 100 mg/kg/day): 59.17 | average number of UMNs in the motor cortex ([1]; prpTDP‐43^A315T‐UeGFP mice, 100 mg/kg/day oral gavage P60–P120): 59 ± 3 UMNs | Rotarod, group mean (Mean 1 / Mean 2 of 2way ANOVA multiple comparisons) ([2]; NU-9 20 mg/kg/day, P102): 295.1 | Rotarod, group mean (Mean 1 / Mean 2 of 2way ANOVA multiple comparisons) ([2]; NU-9 20 mg/kg/day, P109): 291 | Rotarod, group mean (Mean 1 / Mean 2 of 2way ANOVA multiple comparisons) ([2]; NU-9 20 mg/kg/day, P116): 298.9 | Rotarod, group mean (Mean 1 / Mean 2 of 2way ANOVA multiple comparisons) ([2]; NU-9 100 mg/kg/day, P102): 251.4 | Rotarod, group mean (Mean 1 / Mean 2 of 2way ANOVA multiple comparisons) ([2]; NU-9 100 mg/kg/day, P109): 241.3 | Rotarod, group mean (Mean 1 / Mean 2 of 2way ANOVA multiple comparisons) ([2]; NU-9 100 mg/kg/day, P116): 221.3 | Rotarod, group mean (Mean 1 / Mean 2) ([2]; NU-9 20 mg/kg/day, P60): 260.7 | Rotarod, group mean (Mean 1 / Mean 2) ([2]; NU-9 20 mg/kg/day, P67): 279.2 | Rotarod, group mean (Mean 1 / Mean 2) ([2]; NU-9 20 mg/kg/day, P74): 295.3 | Rotarod, group mean (Mean 1 / Mean 2) ([2]; NU-9 20 mg/kg/day, P81): 286.1 | Rotarod, group mean (Mean 1 / Mean 2) ([2]; NU-9 20 mg/kg/day, P88): 285.5 | Rotarod, group mean (Mean 1 / Mean 2) ([2]; NU-9 20 mg/kg/day, P95): 279.3 | Rotarod, group mean (Mean 1 / Mean 2) ([2]; NU-9 100 mg/kg/day, P60): 250.1 | Rotarod, group mean (Mean 1 / Mean 2) ([2]; NU-9 100 mg/kg/day, P67): 261.4 | Rotarod, group mean (Mean 1 / Mean 2) ([2]; NU-9 100 mg/kg/day, P74): 261.2 | Rotarod, group mean (Mean 1 / Mean 2) ([2]; NU-9 100 mg/kg/day, P81): 258.5 | Rotarod, group mean (Mean 1 / Mean 2) ([2]; NU-9 100 mg/kg/day, P88): 256.5 | Rotarod, group mean (Mean 1 / Mean 2) ([2]; NU-9 100 mg/kg/day, P95): 262.2 | Rotarod, Mean Diff. (vehicle minus NU-9) ([2]; vehicle vs. NU-9 20 mg/kg/day, P60): 10.27 | Rotarod, Mean Diff. (vehicle minus NU-9) ([2]; vehicle vs. NU-9 20 mg/kg/day, P67): -0.9667 | Rotarod, Mean Diff. (vehicle minus NU-9) ([2]; vehicle vs. NU-9 20 mg/kg/day, P74): -13.73 | Rotarod, Mean Diff. (vehicle minus NU-9) ([2]; vehicle vs. NU-9 20 mg/kg/day, P81): -2.267 | Rotarod, Mean Diff. (vehicle minus NU-9) ([2]; vehicle vs. NU-9 20 mg/kg/day, P88): -1.533 | Rotarod, Mean Diff. (vehicle minus NU-9) ([2]; vehicle vs. NU-9 20 mg/kg/day, P95): 5.033 | Rotarod, Mean Diff. (vehicle minus NU-9) ([2]; vehicle vs. NU-9 20 mg/kg/day, P102): -24.77 | Rotarod, Mean Diff. (vehicle minus NU-9) ([2]; vehicle vs. NU-9 20 mg/kg/day, P109): -17.03 | Rotarod, Mean Diff. (vehicle minus NU-9) ([2]; vehicle vs. NU-9 20 mg/kg/day, P116): -40.09 | Rotarod, Mean Diff. (vehicle minus NU-9) ([2]; vehicle vs. NU-9 100 mg/kg/day, P60): 20.91 | Rotarod, Mean Diff. (vehicle minus NU-9) ([2]; vehicle vs. NU-9 100 mg/kg/day, P67): 16.81 | Rotarod, Mean Diff. (vehicle minus NU-9) ([2]; vehicle vs. NU-9 100 mg/kg/day, P74): 20.39 | Rotarod, Mean Diff. (vehicle minus NU-9) ([2]; vehicle vs. NU-9 100 mg/kg/day, P81): 25.41 | Rotarod, Mean Diff. (vehicle minus NU-9) ([2]; vehicle vs. NU-9 100 mg/kg/day, P88): 27.48 | Rotarod, Mean Diff. (vehicle minus NU-9) ([2]; vehicle vs. NU-9 100 mg/kg/day, P95): 22.09 | Rotarod, Mean Diff. (vehicle minus NU-9) ([2]; vehicle vs. NU-9 100 mg/kg/day, P102): 18.94 | Rotarod, Mean Diff. (vehicle minus NU-9) ([2]; vehicle vs. NU-9 100 mg/kg/day, P109): 32.69 | Rotarod, Mean Diff. (vehicle minus NU-9) ([2]; vehicle vs. NU-9 100 mg/kg/day, P116): 37.47 | Rotarod, Average ([2]; NU-9 20 mg/kg/day po, P60): 260.733 s | Rotarod, Average ([2]; NU-9 20 mg/kg/day po, P67): 279.2 s | Rotarod, Average ([2]; NU-9 20 mg/kg/day po, P74): 295.333 s | Rotarod, Average ([2]; NU-9 20 mg/kg/day po, P81): 286.133 s | Rotarod, Average ([2]; NU-9 20 mg/kg/day po, P88): 285.467 s | Rotarod, Average ([2]; NU-9 20 mg/kg/day po, P95): 279.267 s | Rotarod, Average ([2]; NU-9 20 mg/kg/day po, P102): 295.133 s | Rotarod, Average ([2]; NU-9 20 mg/kg/day po, P109): 291 s | Rotarod, Average ([2]; NU-9 20 mg/kg/day po, P116): 298.867 s | Rotarod, Average ([2]; NU-9 100 mg/kg/day po, P60): 250.091 s | Rotarod, Average ([2]; NU-9 100 mg/kg/day po, P67): 261.424 s | Rotarod, Average ([2]; NU-9 100 mg/kg/day po, P74): 261.212 s | Rotarod, Average ([2]; NU-9 100 mg/kg/day po, P81): 258.455 s | Rotarod, Average ([2]; NU-9 100 mg/kg/day po, P88): 256.455 s | Rotarod, Average ([2]; NU-9 100 mg/kg/day po, P95): 262.212 s | Rotarod, Average ([2]; NU-9 100 mg/kg/day po, P102): 251.424 s | Rotarod, Average ([2]; NU-9 100 mg/kg/day po, P109): 241.273 s | Rotarod, Average ([2]; NU-9 100 mg/kg/day po, P116): 221.303 s | Rotarod, mean difference G vehicle vs. G NU-9 (20) ([2]; P102): -24.77 | Rotarod, mean difference G vehicle vs. G NU-9 (20) ([2]; P109): -17.03 | Rotarod, mean difference G vehicle vs. G NU-9 (20) ([2]; P116): -40.09 | Rotarod, mean difference G vehicle vs. G NU-9 (100) ([2]; P102): 18.94 | Rotarod, mean difference G vehicle vs. G NU-9 (100) ([2]; P109): 32.69 | Rotarod, mean difference G vehicle vs. G NU-9 (100) ([2]; P116): 37.47 | Mean, Fig. 5E (UMN quantification in motor cortex) ([3]; NU-9 20 mg/kg/day): 21.06 | Mean, Fig. 5E (UMN quantification in motor cortex) ([3]; NU-9 100 mg/kg/day): 46.43 | Mean Diff., Fig. 5E, GS Vehicle vs. GS NU-9 (20) ([3]; hSOD1G93A-UeGFP vehicle minus NU-9 20 mg/kg/day, Tukey's multiple comparisons test): -16.12 | Mean Diff., Fig. 5E, GS Vehicle vs. GS NU-9 (100) ([3]; hSOD1G93A-UeGFP vehicle minus NU-9 100 mg/kg/day, Tukey's multiple comparisons test): -41.49 | average number of UMNs per section in the motor cortex ([3]; 20 mg/kg/day oral gavage P60–P120): 21 ± 5 UMN | average number of UMNs per section in the motor cortex ([3]; 100 mg/kg/day oral gavage P60–P120): 46 ± 3 UMN
